Counter-ions that a name gives are not always drawn. Like-named read-outs stand apart in the source and are kept apart here.

One data set concerns the target T1, 5HT1A receptors (Rattus norvegicus, UniProt P19327).
T1 construct: Rat hippocampi were homogenized; from tissue; host or cells: rat hippocampus membranes
T1 sequence (P19327 1-422): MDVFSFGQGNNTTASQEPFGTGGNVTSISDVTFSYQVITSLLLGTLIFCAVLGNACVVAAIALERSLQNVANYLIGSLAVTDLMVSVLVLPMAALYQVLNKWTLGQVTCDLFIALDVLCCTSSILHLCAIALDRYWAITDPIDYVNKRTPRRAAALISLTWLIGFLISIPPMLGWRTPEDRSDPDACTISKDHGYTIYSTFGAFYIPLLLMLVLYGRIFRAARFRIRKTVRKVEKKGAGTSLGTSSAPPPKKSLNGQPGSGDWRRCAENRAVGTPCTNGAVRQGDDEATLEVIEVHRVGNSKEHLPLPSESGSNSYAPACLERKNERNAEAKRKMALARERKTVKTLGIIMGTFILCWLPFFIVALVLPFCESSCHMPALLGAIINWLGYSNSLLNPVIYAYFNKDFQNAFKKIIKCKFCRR
Put plainly: [3H]8-OH-DPAT binding (5HT1A receptors), rat hippocampus membranes.

Data set [1] can be described thus: Acute toxicity in mice after intraperitoneal and oral administration. The conditions noted are these: mouse, in vivo, female albino Swiss mice, mortality recorded 7 days after administration. The method, then: Male Sprague Dawley rats [Crl: CD' BR] of 200-300 g b.w., female Albino Swiss mice [Crl: CD-1 (ICR) BR] 20-30 g b.w., and male Beagle dogs (10-12 kg b.w.) were obtained from Charles River, Italy and Nossan (Correzzana, Milan, Italy), respectively. Animals were housed with free access to food and water and maintained on forced light-dark cycle at 22-24°C until the day of experiments.
The acute toxicity of synthesized compounds was evaluated in female albino Swiss mice after intraperitoneal and oral administration. Four logarithmic scaled doses of the compounds were dissolved or suspended in 0.5% Methocel and administered in a volume of 10 ml/kg to groups of 4 mice/dose. Mortality was recorded 7 days after the administration. Data analysis: the LD₅₀ values and their fiducial limits were calculated according to the method of Weil (Biometrics, 8, 249, 1952).

A further data set has as its target α₁ receptors. The data set is described as follows: [3H]prazosin binding (α1 receptors), rat cerebral cortex membranes. The conditions noted are these: rat cerebral cortex crude membranes, [3H]prazosin 0.35 nM, 25°C 30 min; read-out: Receptor Binding IC50 (nM) α1.
Where [2] appears, read: rat hippocampus crude membranes, [3H]8-OH-DPAT 1.0 nM, 25°C 30 min, read-out: Receptor Binding IC50 (nM) 5-HT1a.
The mark [3] stands for this setting: ip, intraperitoneal, read-out: Acute Toxicity in Mice LD50 (mg/kg) i.p.
[4] abbreviates: oral, read-out: Acute Toxicity in Mice LD50 (mg/kg) p.o.

Protocol for 5HT1A receptors: Rat hippocampi were homogenized in 50 volumes of original wet weight of ice-cold 50 mM Tris-HCl buffer pH 7.4. The homogenates were centrifuged at 48,000 x g for 10 minutes, and the pellets were resuspended in the same volume of ice-cold buffer, incubated for 10 minutes at 37°C, centrifuged and resuspended two more times. The final pellets obtained were resuspended in the same volume of buffer and incubated according to the conditions reported in the table below.
(§1) The incubations were terminated after the appropriate time (see table) by rapid filtration through Whatman GF/B filters using a Brandel cell harvester. The filters were washed twice with 15 ml of ice-cold buffer (see table). The radioactivity retained on the filters was determined by liquid scintillation counting. Nonspecific binding (which amounted generally to 10-30%) was evaluated by adding high concentrations of the specific displacers (see table). All the compounds were initially tested at 1x10⁻⁶ M concentration, and in the presence of significant displacing activity, a complete competition curve was generated (down to a concentration of 10⁻¹¹ M). All the samples were run in triplicate.
The competition curves were always analyzed (to evaluate the IC₅₀ values) by non linear curve fitting of the logistic equation according to the method reported by De Lean et al. (Am. J. Physiol., 235, E97, 1978), utilizing the ALLFIT program [publically available from the National Institutes of Health (N.I.H.) Bethesda, Maryland, USA] written for the IBM PC.
Protocol for α₁ receptors: Rat cerebral cortices were homogenized in 50 volumes of original wet weight of ice-cold 50 mM Tris-HCl buffer pH 7.4. The homogenates were centrifuged at 48,000 x g for 10 minutes, and the pellets were resuspended in the same volume of ice-cold buffer, centrifuged and resuspended two more times. The final pellets obtained were resuspended in the same volume of buffer and incubated according to the conditions reported in the table below.
as §1

Turning to `CCOc1ccccc1N1CCN(CC(O)c2cccc3c(=O)c(C)c(-c4ccccc4)oc23)CC1.Cl` (stereo not shown) [Example 19, 8-{1-Hydroxy-2-[4-(2-ethoxyphenyl)-1-piperazinyl]-ethyl}-3-methyl-4-oxo-2-phenyl-4H-1-benzopyran hydrochloride], the IC50 worked out at 340 nM on 5HT1A receptors (setting [2]) and 165 nM on α₁ receptors. The LD50 at 168 h in data set [1] (setting [3]) is greater than 1000 mg/kg; in data set [1] (setting [4]), greater than 3000 mg/kg.
On to `COc1ccccc1N1CCN(CCCC[S+]([O-])c2cccc3c(=O)c(C)c(-c4ccccc4)oc23)CC1.CS(=O)(=O)O` (stereo not shown) [Example 73, 8-{4-[4-(2-methoxyphenyl)-1-piperazinyl]-butylsulphinyl}-3-methyl-4-oxo-2-phenyl-4H-1-benzopyran methanesulphonate], for which the results for the IC50 on 5HT1A receptors (setting [2]) and at α₁ receptors were 89 nM and 6 nM, respectively. Moreover, the values for the LD50 at 168 h in data set [1] (setting [3]) and in data set [1] (setting [4]) were 202 mg/kg and 462 mg/kg, respectively.
As to `COc1ccccc1N1CCN(CC(=O)N(C)Cc2cccc3c(=O)c(C)c(-c4ccccc4)oc23)CC1` [Example 26, 8-{N-methyl-N-[4-(2-methoxyphenyl)-1-piperazinyl]-acetamidomethyl}-3-methyl-4-oxo-2-phenyl-4H-1-benzopyran hydrochloride hydrate], the IC50 at 5HT1A receptors (setting [2]) was greater than 1000 nM; at α₁ receptors, 270 nM. Further, the LD50 at 168 h was greater than 500 mg/kg in data set [1] (setting [3]) and greater than 2000 mg/kg in data set [1] (setting [4]).
In the same order, the values of `COc1ccccc1N1CCN(CCC(=O)Nc2cccc3c(=O)c(C)c(-c4ccccc4)oc23)CC1.Cl` [Example 37, 8-{3-[4-(2-methoxyphenyl)-1-piperazinyl]-propionamido}-3-methyl-4-oxo-2-phenyl-4H-1-benzopyran hydrochloride] are 77 nM, 32 nM, greater than 500 mg/kg and greater than 2000 mg/kg.
On to `COc1ccccc1N1CCN(CCO/N=C/c2cccc3c(=O)c(C)c(-c4ccccc4)oc23)CC1` [Example 70, E-8-{2-[4-(2-methoxyphenyl)-1-piperazinyl]-ethoxyimino-methyl}-3-methyl-4-oxo-2-phenyl-4H-1-benzopyran], for which the figures for the IC50 on 5HT1A receptors (setting [2]) and at α₁ receptors were 85 nM and 53 nM, respectively. For the same molecule, the LD50 at 168 h was greater than 500 mg/kg in data set [1] (setting [3]) and 1870 mg/kg in data set [1] (setting [4]).
Regarding `COc1ccccc1N1CCN(CCNC(=O)/C=C/c2cccc3c(=O)c(C)c(-c4ccccc4)oc23)CC1` [Example 72, E-8-<2-{2-[4-(2-methoxyphenyl)-1-piperazinyl]-ethylcarbamoyl}-ethenyl>-3-methyl-4-oxo-2-phenyl-4H-1-benzopyran methanesulphonate 1.2 H₂0], the IC50 at 5HT1A receptors (setting [2]) is 111 nM; on α₁ receptors it was 145 nM. The LD50 at 168 h in data set [1] (setting [3]) was 479 mg/kg; in data set [1] (setting [4]) it was greater than 2000 mg/kg.
Consider `COc1ccccc1N1CCN(CCCNS(=O)(=O)c2cccc3c(=O)c(C)c(-c4ccccc4)oc23)CC1.CS(=O)(=O)O` [Example 61, 8-{3-[4-(2-methoxyphenyl)-1-piperazinyl]-propylsulphamoyl}-3-methyl-4-oxo-2-phenyl-4H-1-benzopyran methanesulphonate], for which the IC50 is 11 nM at 5HT1A receptors (setting [2]) and 36 nM on α₁ receptors. Moreover, the LD50 at 168 h came out at 315 mg/kg in data set [1] (setting [3]) and 592 mg/kg in data set [1] (setting [4]).
Regarding `COc1ccccc1OCCN(C)CCCNC(=O)c1cccc2c(=O)c(C)c(-c3ccccc3)oc12.Cl` [Example 62, 8-{3-[N-methyl-2-(2-methoxyphenoxy)-ethylamino]-propylcarbamoyl}-3-methyl-4-oxo-2-phenyl-4H-1-benzopyran hydrochloride], the results for the IC50 at 5HT1A receptors (setting [2]) and on α₁ receptors were 278 nM and 252 nM, respectively. Moreover, the LD50 at 168 h in data set [1] (setting [3]) turned out to be 128 mg/kg; in data set [1] (setting [4]) it was 344 mg/kg.
As to `COc1ccccc1N1CCN(CCOC(=O)Cc2cccc3c(=O)c(C)c(-c4ccccc4)oc23)CC1.Cl.Cl` [Example 66, 8-{2-[4-(2-methoxyphenyl)-1-piperazinyl]-ethoxycarbonylmethyl}-3-methyl-4-oxo-2-phenyl-4H-1-benzopyran dihydrochloride], the 50% inhibitory concentration (IC50) on 5HT1A receptors (setting [2]) was determined as 56 nM; on α₁ receptors, 57 nM. In addition, the LD50 at 168 h in data set [1] (setting [4]) is 601 mg/kg.
As for `CS(=O)(=O)O.Cc1c(-c2ccccc2)oc2c(C(=O)NCCCN3CCN(c4ncccn4)CC3)cccc2c1=O` [Example 58, 8-{3-[4-(2-pyrimidinyl)-1-piperazinyl]-propylcarbamoyl}-3-methyl-4-oxo-2-phenyl-4H-1-benzopyran methanesulphonate], the 50% inhibitory concentration (IC50) at 5HT1A receptors (setting [2]) is 126 nM; at α₁ receptors it was no less than 1000 nM. In addition, the LD50 at 168 h in data set [1] (setting [3]) was 258 mg/kg; in data set [1] (setting [4]) it was 508 mg/kg.
For `COc1ccccc1N1CCN(CCNS(=O)(=O)c2cccc3c(=O)c(C)c(-c4ccccc4)oc23)CC1.Cl` [Example 48, 8-{2-[4-(2-methoxyphenyl)-1-piperazinyl]-ethylsulphamoyl}-3-methyl-4-oxo-2-phenyl-4H-1-benzopyran hydrochloride], the concentration for half-maximal inhibition (IC50) at 5HT1A receptors (setting [2]) was determined as 5 nM; on α₁ receptors, 104 nM. Further, the values for the LD50 at 168 h in data set [1] (setting [3]) and in data set [1] (setting [4]) were 500 mg/kg and 1910 mg/kg, respectively.
In the case of `COc1ccccc1N1CCN(CCCCNC(=O)c2cccc3c(=O)c(C)c(-c4ccccc4)oc23)CC1.CS(=O)(=O)O` [Example 60, 8-{4-[4-(2-methoxyphenyl)-1-piperazinyl]-butylcarbamoyl}-3-methyl-4-oxo-2-phenyl-4H-1-benzopyran methansulphonate], the IC50 at 5HT1A receptors (setting [2]) was determined as 45 nM; at α₁ receptors it was 25 nM. Besides, the LD50 at 168 h in data set [1] (setting [3]) worked out at 203 mg/kg; in data set [1] (setting [4]), 329 mg/kg.
In the case of `Cc1c(-c2ccccc2)oc2c(C(=O)NCCCNCC3COc4ccccc4O3)cccc2c1=O` (stereo not shown) [Example 52, 8-{3-[2-(1,4-benzodioxanyl)methylamino]propylcarbamoyl}-3-methyl-4-oxo-2-phenyl-4H-1-benzopyran methansulphonate], the figures for the IC50 at 5HT1A receptors (setting [2]) and on α₁ receptors were 2 nM and 89 nM, respectively. Further, the LD50 at 168 h came out at 127 mg/kg in data set [1] (setting [3]) and 224 mg/kg in data set [1] (setting [4]).
Consider `CS(=O)(=O)O.Cc1c(-c2ccccc2)oc2c(C(=O)NCCCN3CCC(c4ccccc4)(c4ccccc4)CC3)cccc2c1=O` [Example 55, 8-[3-(4,4-diphenyl-1-piperidinyl)-propylcarbamoyl]-3-methyl-4-oxo-2-phenyl-4H-1-benzopyran methansulphonate], for which the IC50 at 5HT1A receptors was greater than 1000 nM; on α₁ receptors, 291 nM. The results for the LD50 at 168 h in data set [1] (setting [3]) and in data set [1] (setting [4]) were 128 mg/kg and no less than 2000 mg/kg, respectively.
Turning to `COc1ccccc1N1CCN(CCNC(=O)Nc2cccc3c(=O)c(C)c(-c4ccccc4)oc23)CC1.CS(=O)(=O)O` [Example 38, 8-{2-[4-(2-methoxyphenyl)-1-piperazinyl]-ethylureido}-3-methyl-4-oxo-2-phenyl-4H-1-benzopyran methanesulphonate], the IC50 at 5HT1A receptors (setting [2]) is 344 nM; on α₁ receptors, 20 nM. For the same molecule, the results for the LD50 at 168 h in data set [1] (setting [3]) and in data set [1] (setting [4]) were greater than 500 mg/kg and greater than 2000 mg/kg, respectively.
Turning to `COc1ccccc1N1CCN(CCCC(=O)Nc2cccc3c(=O)c(C)c(-c4ccccc4)oc23)CC1` [Example 69, 8-{4-[4-(2-methoxyphenyl)-1-piperazinyl]-butyramido}-3-methyl-4-oxo-2-phenyl-4H-1-benzopyran methanesulphonate hemihydrate], the 50% inhibitory concentration (IC50) on 5HT1A receptors (setting [2]) stood at 87 nM; at α₁ receptors it was 16 nM. The LD50 at 168 h in data set [1] (setting [3]) worked out at 344 mg/kg.
`COc1ccccc1N1CCN(CCOC(=O)c2cccc3c(=O)c(C)c(-c4ccccc4)oc23)CC1.Cl.Cl` [Example 6, 8-{2-[4-(2-methoxyphenyl)-1-piperazinyl]-ethoxycarbonyl}-3-methyl-4-oxo-2-phenyl-4H-1-benzopyran dihydrochloride]: the results for the IC50 on 5HT1A receptors (setting [2]) and on α₁ receptors were 1000 nM and 107 nM, respectively. For the same molecule, the LD50 at 168 h in data set [1] (setting [3]) is 233 mg/kg.
Take `CCOc1ccccc1OCCNCCOCc1cccc2c(=O)c(C)c(-c3ccccc3)oc12.Cl` [Example 28, 8-{2-[2-(2-ethoxyphenoxy)-ethylamino]-ethoxymethyl}-3-methyl-4-oxo-2-phenyl-4H-1-benzopyran hydrochloride]: the IC50 at 5HT1A receptors (setting [2]) stood at 96 nM; on α₁ receptors, 120 nM. Further, the figures for the LD50 at 168 h in data set [1] (setting [3]) and in data set [1] (setting [4]) were 203 mg/kg and 1130 mg/kg, respectively.
With `COc1ccccc1N1CCN(CCOc2cccc3c(=O)c(C)c(-c4ccccc4)oc23)CC1.Cl.O` [Example 39, 8-{2-[4-(2-methoxyphenyl)-1-piperazinyl]-ethoxy}-3-methyl-4-oxo-2-phenyl-4H-1-benzopyran hydrochloride hydrate], the concentration for half-maximal inhibition (IC50) at 5HT1A receptors (setting [2]) came out at 170 nM; at α₁ receptors, 90 nM. The LD50 at 168 h in data set [1] (setting [3]) was greater than 1000 mg/kg; in data set [1] (setting [4]), greater than 3000 mg/kg.

Usually IC50 stands for the concentration that inhibits the measured activity by half.

(Values after patent EP0558245A1, “Heterobicyclic compounds as antagogists of alpha-1 adrenergic and SHT1A receptors” (priority 1992, dated 1993).)
